US20140377340A1, “HLA-DR BINDING PEPTIDES AND THEIR USES” (priority 2007, published 2014)

How the values were obtained:
purified HLA DRB1*1101 = target: T1, purified HLA DRB1*1101 (Homo sapiens, UniProt P01903+P01911, A100R/A169T/A87E/I96F/K41T/L162R/M171V/P40S/Q125H/Q178H/Q39Y/Q99D/R42S/S66Y/T262R/V115G/W38E); assay: HLA-DR radioligand binding inhibition assay, DRB1*1101; details: IC50 nM purified HLA DRB1 *1101, purified HLA DRB1*1101
T1 construct: purified from EBV transformed homozygous cell lines or single MHC allele transfected 721.221, C1R, or fibroblast lines; made in house
T1 sequence (P01903 26-254, other chains not shown): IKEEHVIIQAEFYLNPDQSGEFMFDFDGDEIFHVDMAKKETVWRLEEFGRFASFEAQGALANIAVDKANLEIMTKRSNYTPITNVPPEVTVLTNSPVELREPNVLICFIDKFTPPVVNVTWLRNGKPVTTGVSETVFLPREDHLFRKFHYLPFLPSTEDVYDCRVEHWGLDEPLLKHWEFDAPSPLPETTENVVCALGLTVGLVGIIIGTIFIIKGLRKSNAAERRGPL
In short: (§1)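 Bound radioactivity is read after 3-hour capture of complexes in 0.05% NP40/PBS on antibody-coated plates. Binding reactions pair 1-10 nM labeled peptide with 1 μM to 1 nM HLA-DR for two days.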

purified HLA DRB1*0404 = target: T2, purified HLA DRB1*0404 (Homo sapiens, UniProt P01903+P01911, A100R/A169T/F76Y/I96L/K127E/L162R/M171V/N62H/P40V/Q125Y/R42H/S133A/S149N/S66Y/V209L/W38E); assay: HLA-DR radioligand binding inhibition assay, DRB1*0404; details: IC50 nM purified HLA DRB1 *0404, purified HLA DRB1*0404
T2 construct: purified from EBV transformed homozygous cell lines or single MHC allele transfected 721.221, C1R, or fibroblast lines; made in house
Protocol: (§2) Instead, wells of an opaque white 96-well Optiplate (Packard) are coated with 3 μg (100 μl@ 30 μg/ml) of HLA-specific antibody (Ab) that “capture” complexes of radiolabeled MHC and unlabeled peptide transferred from the molecular binding assay plate in 100 μl of 0.05% NP40/PBS. After a 3-hour incubation period, the supernatant is decanted and scintillation fluid (Microscint 20) added. Captured complexes are then measured on a microplate scintillation and luminescence counter (TopCount NXTTM; Packard).
(§3) HLA-DR purification. Fifteen distinct HLA-DR molecules were used in quantitative assays to measure the binding of peptides to solubilized HLA-DR molecules. […] Briefly, columns of inactivated Sepharose CL4B and Protein A Sepharose were used as pre-columns. HLA-DR molecules were captured by passage of lysates over LB3.1 monoclonal antibody (anti-HLA-DRA) columns. Antibody columns were washed with 10 mM Tris-HCL, pH8.0 with 1% (v/v) NP-40, followed by PBS containing 0.4% (w/v) n-octylglucoside.
(§4) Briefly, 1-10 nM of radiolabeled peptide was co-incubated for 2 days at either room temperature or 37° C. with 1 μM to 1 nM purified HLA-DR molecules in the presence of a cocktail of protease inhibitors. Assays were performed at various pH conditions, ranging from pH 4 to pH 7. […] After incubation, the percentage of HLA-DR-bound radioactivity is determined by capturing HLA-DR/peptide complexes on Optiplates (Packard Instruments, Meriden, Conn.) coated with the LB3.1 antibody and determining bound counts per minute using the TopCount microscintillation counter (Packard Instruments).

purified HLA DRB1*1501 = target: T3, purified HLA DRB1*1501 (Homo sapiens, UniProt P01903+P01911); assay: HLA-DR radioligand binding inhibition assay, DRB1*1501
T3 construct: purified from EBV transformed homozygous cell lines or single MHC allele transfected 721.221, C1R, or fibroblast lines; made in house
In short: as §1

purified HLA DRB4*0101 = target: T4, purified HLA DRB4*0101 (Homo sapiens, UniProt P01903+P13762, G164S); assay: HLA-DR radioligand binding inhibition assay, DRB4*0101; details: IC50 nM purified HLA DRB4 *0101, purified HLA DRB4*0101
T4 construct: purified from EBV transformed homozygous cell lines or single MHC allele transfected 721.221, C1R, or fibroblast lines; made in house
Protocol: as §2, §3, §4

purified HLA DRB1*0401 = target: T5, purified HLA DRB1*0401 (Homo sapiens, UniProt P01903+P01911, A100K/A169T/F76Y/I96L/K127E/L162R/M171V/N62H/P40V/Q125Y/R42H/S133A/S149N/S66Y/V115G/V209L/W38E); assay: HLA-DR radioligand binding inhibition assay, DRB1*0401; details: IC50 nM purified HLA DRB1 *0401, purified HLA DRB1*0401
T5 construct: purified from EBV transformed homozygous cell lines or single MHC allele transfected 721.221, C1R, or fibroblast lines; made in house
In short: as §1

purified HLA DRB1*0405 = target: T6, purified HLA DRB1*0405 (Homo sapiens, UniProt P01903+P01911, A100R/A169T/D86S/F76Y/I96L/K127E/L162R/M171V/N62H/P40V/Q125Y/R42H/S133A/S149N/S66Y/V115G/V209L/W38E); assay: HLA-DR radioligand binding inhibition assay, DRB1*0405; details: IC50 nM purified HLA DRB1 *0405, purified HLA DRB1*0405
T6 construct: purified from EBV transformed homozygous cell lines or single MHC allele transfected 721.221, C1R, or fibroblast lines; made in house
In short: as §1

purified HLA DRB5*0101 = target: T7, purified HLA DRB5*0101 (Homo sapiens, UniProt P01903+Q30154); assay: HLA-DR radioligand binding inhibition assay, DRB5*0101; details: IC50 nM purified HLA DRB5 *0101, purified HLA DRB5*0101
T7 construct: purified from EBV transformed homozygous cell lines or single MHC allele transfected 721.221, C1R, or fibroblast lines; made in house
In short: as §1

purified HLA DRB1*0101 = target: T8, purified HLA DRB1*0101 (Homo sapiens, UniProt P01903+P01911, A100R/D57E/F55L/F60I/F76Y/I96L/L162R/M171V/P40L/Q125E/R42F/V115G/Y59C); assay: HLA-DR radioligand binding inhibition assay, DRB1*0101; details: IC50 nM purified HLA DRB1 *0101, purified HLA DRB1*0101
T8 construct: purified from EBV transformed homozygous cell lines or single MHC allele transfected 721.221, C1R, or fibroblast lines; made in house
In short: as §1

purified HLA DRB1*0701 = target: T9, purified HLA DRB1*0701 (Homo sapiens, UniProt P01903+P01911, A100R/A102G/A103Q/D57E/D86V/E43K/F76Y/K127E/L162R/M171V/P40G/Q125H/Q99D/R33Q/R42Y/R54Q/S133A/S66F/T210M/V115G/Y107V/Y59L/Y89S); assay: HLA-DR radioligand binding inhibition assay, DRB1*0701; details: IC50 nM purified HLA DRB1 *0701, purified HLA DRB1*0701
T9 construct: purified from EBV transformed homozygous cell lines or single MHC allele transfected 721.221, C1R, or fibroblast lines; made in house
In short: as §1

purified HLA DRB1*1302 = target: T10, purified HLA DRB1*1302 (Homo sapiens, UniProt P01903+P01911, A100E/A169T/K41T/L162R/M171V/P40S/Q125H/Q178H/Q39Y/Q99D/R42S/S66N/T262R/V115G/W38E/Y61H); assay: HLA-DR radioligand binding inhibition assay, DRB1*1302
T10 construct: purified from EBV transformed homozygous cell lines or single MHC allele transfected 721.221, C1R, or fibroblast lines; made in house
In short: as §1

Row | IC50 (purified HLA DRB1*1101) [nM] | IC50 (purified HLA DRB1*0404) [nM] | IC50 (purified HLA DRB1*1501) [nM] | IC50 (purified HLA DRB4*0101) [nM] | IC50 (purified HLA DRB1*0401) [nM] | IC50 (purified HLA DRB1*0405) [nM] | IC50 (purified HLA DRB5*0101) [nM] | IC50 (purified HLA DRB1*0101) [nM] | IC50 (purified HLA DRB1*0701) [nM] | IC50 (purified HLA DRB1*1302) [nM] | SMILES
1 | 3320 | 11 | 3110 |  | 75 |  | 15100 | 2810 | 1560 |  | CC[C@H](C)[C@H](NC(=O)[C@@H](N)CO)C(=O)N[C@H](C(=O)N[C@H](C(=O)N[C@@H](CO)C(=O)N[C@@H](C)C(=O)N[C@@H](CO)C(=O)NCC(=O)N[C@H](C(=O)N[C@@H](CO)C(=O)N1CCC[C@H]1C(=O)NCC(=O)N[C@@H](CC(C)C)C(=O)N[C@@H](CO)C(=O)N[C@@H](C)C(=O)O)[C@@H](C)O)C(C)C)[C@@H](C)O [Peptide 9019.0143]
2 |  | 695 |  |  | 5110 | 13700 | 731 |  | 2150 |  | CC(C)C[C@H](NC(=O)[C@H](CC(C)C)NC(=O)[C@H](CCC(N)=O)NC(=O)[C@H](CC(C)C)NC(=O)[C@H](CCCNC(=N)N)NC(=O)[C@H](CO)NC(=O)[C@H](CCCCN)NC(=O)[C@H](CCCCN)NC(=O)[C@@H](NC(=O)[C@@H]1CCCN1C(=O)[C@H](CCC(=O)O)NC(=O)[C@@H](N)CC(C)C)C(C)C)C(=O)NCC(=O)N[C@@H](C)C(=O)N[C@H](C(=O)O)[C@@H](C)O [Peptide 9019.0155]

More lines, now with the values behind:

Row | SMILES | IC50 (purified HLA DRB1*1101) [nM] | IC50 (purified HLA DRB1*0404) [nM] | IC50 (purified HLA DRB1*1501) [nM] | IC50 (purified HLA DRB4*0101) [nM] | IC50 (purified HLA DRB1*0401) [nM] | IC50 (purified HLA DRB1*0405) [nM] | IC50 (purified HLA DRB5*0101) [nM] | IC50 (purified HLA DRB1*0101) [nM] | IC50 (purified HLA DRB1*0701) [nM] | IC50 (purified HLA DRB1*1302) [nM]
3 | CC[C@H](C)[C@H](NC(=O)[C@H](CCSC)NC(=O)[C@H](Cc1c[nH]c2ccccc12)NC(=O)[C@H](CS)NC(=O)[C@H](CCCCN)NC(=O)[C@@H](NC(=O)[C@H](CCSC)NC(=O)[C@@H](NC(=O)[C@H](CCSC)NC(=O)[C@H](Cc1ccc(O)cc1)NC(=O)[C@@H](NC(=O)[C@@H](N)CC(=O)O)C(C)C)[C@@H](C)CC)C(C)C)C(=O)N[C@@H](CC(=O)O)C(=O)N[C@@H](CO)C(=O)N[C@@H](CCC(=O)O)C(=O)O [Peptide 9019.0094] | 172 | 7010 | 1300 | 607 |  |  |  |  |  | 
4 | CC(C)C[C@H](NC(=O)CNC(=O)[C@H](CO)NC(=O)[C@@H](N)CC(N)=O)C(=O)N[C@@H](Cc1ccc(O)cc1)C(=O)N[C@H](C(=O)N[C@@H](CS)C(=O)N[C@@H](CCC(N)=O)C(=O)N[C@@H](C)C(=O)N[C@@H](CC(N)=O)C(=O)N[C@@H](CC(N)=O)C(=O)N[C@@H](CO)C(=O)N[C@@H](C)C(=O)N[C@@H](CO)C(=O)NCC(=O)O)[C@@H](C)O [Peptide 9019.0130] |  | 37 |  | 100 | 33 | 96 |  |  |  | 
5 | CC[C@H](C)[C@H](NC(=O)CNC(=O)[C@H](CS)NC(=O)[C@@H](N)C(C)C)C(=O)N[C@@H](CCC(N)=O)C(=O)N[C@@H](CC(N)=O)C(=O)N[C@@H](CO)C(=O)N[C@H](C(=O)N[C@@H](CO)C(=O)N[C@@H](C)C(=O)N[C@@H](CC(N)=O)C(=O)N[C@@H](CCCNC(=N)N)C(=O)N[C@@H](CO)C(=O)N[C@@H](CC(=O)O)C(=O)N1CCC[C@H]1C(=O)O)C(C)C [Peptide 9019.0135] | > 20000 | 26 | 8980 |  |  | 1850 | 36 | 44 | 1100 | 921
